One test addresses T1, TrkA receptor (Rattus norvegicus, UniProt P35739).
T1 construct: Autophosphorylation of the TrkA receptor on PC12 cells when incubated with NGF or with a mimetic; endogenous in cells; host or cells: PC12 rat pheochromocytoma cells
The experiment in a line: Autophosphorylation of the TrkA receptor in PC12 cells (Western blotting). Type of test: cell-based. The note with it: serum-free 6 hours, NGF 10 ng/ml or compounds 10 μm, 20 minutes, WB, ratio to total TrkA. The protocol:
Cells of the continuous PC12 pheochromocytoma rat line were cultured at a concentration of 4×10^5/ml in RPMI 1640 medium, supplemented with 5% glutamine, antibiotics, and in the absence of serum, in 24-well plates for 6 hours. Subsequently, NGF at a final concentration of 10 ng/ml or alternatively the compounds of formula (I), at the final concentration of 10 μm, were added to these cultures. After 20 minutes, the cells were thus lysed in RIPA buffer (20 mM Tris-HCl, pH 7.5, 150 mM NaCl, 1 mM Na2 EDTA, 1 mM EGTA, 1% NP-40, 1% sodium deoxycholate, 25 mM sodium pyrophosphate, 1 mMβ-glycerophosphate, 1 mM Na3VO4, 1 μg/ml leupeptin) for biochemical analysis by means of Western blotting (WB) technique, using specific antibodies for the phosphorylated form of the tyrosines 490, 674/675 or 785.
The graphs show the phosphorylation values of the indicated tyrosines (Y490, Y674/675, Y785), expressed as the ratio of the intensities of the bands observed in WB, developed with the respective anti-phosphotyrosine antibodies, to the band relating to the total TrkA protein. It is clear that the mimetics very strongly induce the phosphorylation of Y490 and much less that of the other tyrosines.
Background: A western blot detects proteins with antibodies after separation by electrophoresis.

A further test deals with MKP-1 protein. The experiment in a line: Induction of MKP-1 protein expression in PC12 cells (Western blotting). Type of test: cell-based, rat. The note with it: serum-free, NGF 10 ng/ml or compounds 10 μm, 30 minutes, WB densitometry. How it is done: PC12 cells were cultured in the absence of serum, exactly as described above in example 5, and then treated for 30 minutes with NGF, at the final concentration of 10 ng/ml, or alternatively with the compounds of formula (I), at the final concentration of 10 μm; subsequently, the cells were lysed, and analysed by WB, using antibodies specific for the MKP-1 protein.

The test system of a further test is p38 MAPK protein. The experiment in a line: Dephosphorylation of p38 MAPK protein in serum-deprived PC12 cells (Western blotting). Type of test: cell-based, rat. The note with it: serum deprivation 6 hours, NGF 10 ng/ml or compounds 10 μm, 30 minutes, WB. The protocol: PC12 cells were cultured in the absence of serum, exactly as described above in example 5, and treated for 30 minutes with NGF, at the final concentration of 10 ng/ml, or alternatively with the compounds of formula I, at the final concentration of 10 μm; the cells were subsequently lysed and analysed by WB, using antibodies specific for the phosphorylated form of the enzyme.
A homogeneity control of protein load on gel, normalisation with β-actin is reported. (FIG. 3).

In the next test the test system is Murine cardiomyocytes. The experiment in a line: Apoptosis induced by ROS after hypoxia/reperfusion, Annexin-V flow cytometry. Type of test: cell-based. The settings on record: cells cultured in hypoxia, end of reperfusion period, vs controls.

T1 sequence (P35739 33-799): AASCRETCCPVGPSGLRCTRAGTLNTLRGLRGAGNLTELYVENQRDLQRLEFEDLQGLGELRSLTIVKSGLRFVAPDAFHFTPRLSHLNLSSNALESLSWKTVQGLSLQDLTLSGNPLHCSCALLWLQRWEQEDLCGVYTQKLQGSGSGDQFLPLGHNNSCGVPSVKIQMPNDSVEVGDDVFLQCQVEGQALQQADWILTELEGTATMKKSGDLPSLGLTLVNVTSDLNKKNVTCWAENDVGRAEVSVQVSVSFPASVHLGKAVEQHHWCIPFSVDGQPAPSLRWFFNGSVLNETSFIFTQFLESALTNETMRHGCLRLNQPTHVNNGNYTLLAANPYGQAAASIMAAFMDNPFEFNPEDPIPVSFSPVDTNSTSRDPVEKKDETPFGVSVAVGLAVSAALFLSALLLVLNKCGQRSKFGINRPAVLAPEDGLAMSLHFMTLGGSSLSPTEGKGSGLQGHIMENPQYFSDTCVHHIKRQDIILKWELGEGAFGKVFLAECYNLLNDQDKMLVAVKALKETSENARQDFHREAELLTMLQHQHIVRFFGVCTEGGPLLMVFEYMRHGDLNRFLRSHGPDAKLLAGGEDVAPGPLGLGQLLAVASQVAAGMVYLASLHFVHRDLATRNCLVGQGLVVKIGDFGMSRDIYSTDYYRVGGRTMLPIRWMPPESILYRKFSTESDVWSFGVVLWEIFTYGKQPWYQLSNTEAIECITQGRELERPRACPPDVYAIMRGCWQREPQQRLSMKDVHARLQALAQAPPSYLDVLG

As for “NGF: recombinant human NGF, the native neurotrophin used as comparator at 10 ng/ml”, the “phosphorylation of TrkA tyrosines 490, 674/675, 785” value with TrkA receptor was “invariably induced the phosphorylation of all tyrosines”. Also, the “MKP-1 protein levels (ratio MKP1 band to β-actin)” value with MKP-1 protein is “significantly higher than the control”. In the test with p38 MAPK protein, the “dephosphorylation of p38 MAPK” value is listed as “marked dephosphorylation of p38 MAPK”. The “percentage of apoptotic cells (Annexin-V positive)” value with Murine cardiomyocytes is given as “much lower percentage of apoptotic cells than the controls”.
